Source: patent US20220370467A1, “USING OF A PPAR-DELTA AGONIST IN THE TREATMENT OF KIDNEY DISEASE” (Reneo Pharmaceuticals, Inc., priority 2019, published 2022)

Legend:
hPPARδ = target: T1, hPPARδ (Homo sapiens, UniProt Q03181); experiment: in vitro assay on human PPAR subtypes (transactivation): hPPARδ; type: cell-based
T1 construct: (PPARδ: aa 128—C-terminus); expressed in transfected cells; host or cells: HEK293
T1 sequence (Q03181 128-441 limits assumed): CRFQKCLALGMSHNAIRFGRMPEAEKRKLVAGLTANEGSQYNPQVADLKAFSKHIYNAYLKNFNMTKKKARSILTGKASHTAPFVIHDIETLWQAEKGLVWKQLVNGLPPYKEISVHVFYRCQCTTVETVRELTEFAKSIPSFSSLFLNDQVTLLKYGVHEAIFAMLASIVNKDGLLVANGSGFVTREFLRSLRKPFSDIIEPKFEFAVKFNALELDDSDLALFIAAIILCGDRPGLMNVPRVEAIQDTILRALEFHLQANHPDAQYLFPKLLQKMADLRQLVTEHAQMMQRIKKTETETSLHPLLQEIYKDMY
Description: “Activation” here is defined as the abovementioned downstream response, which in the case of PPAR's is gene transcription. Gene transcription may be measured indirectly as downstream production of proteins reflective of the activation of the particular PPAR subtype under study. Alternatively, an artificial reporter construct may be employed to study the activation of the individual PPAR's expressed in cells. The ligand binding domain of the particular receptor to be studied may be fused to the DNA binding domain of a transcription factor, which produces convenient laboratory readouts, such as the yeast GAL4 transcription factor DNA binding domain. The fusion protein may be transfected into a laboratory cell line along with a Gal4 enhancer, which effects the expression of the luciferase protein. When such a system is transfected into a laboratory cell line, binding of a receptor agonist to the fusion protein will result in light emission.
The PPAR transient transactivation assay may be based on transient transfection into human HEK293 cells of two plasmids encoding a chimeric test protein and a reporter protein respectively. The chimeric test protein may be a fusion of the DNA binding domain (DBD) from the yeast GAL4 transcription factor to the ligand binding domain (LBD) of the human PPAR proteins. The PPAR-LBD moiety harbored in addition to the ligand binding pocket also has the native activation domain, allowing the fusion protein to function as a PPAR ligand dependent transcription factor. The GAL4 DBD will direct the chimeric protein to bind only to Gal4 enhancers (of which none existed in HEK293 cells). The reporter plasmid contained a Gal4 enhancer driving the expression of the firefly luciferase protein. After transfection, HEK293 cells expressed the GAL4-DBD-PPAR-LBD fusion protein. The fusion protein will in turn bind to the Gal4 enhancer controlling the luciferase expression, and do nothing in the absence of ligand. […] The amount of luciferase protein is measured by light emission after addition of the appropriate substrate. […]

[1] = tested on: human retinoid X receptor (hRXR); experiment: human retinoid X receptor activity

agonist type on PPARδ (hPPARδ): full agonist | selectivity for PPARδ over PPARα (hPPARδ; versus PPARα): at least 100 fold | selectivity for PPARδ over PPARγ (hPPARδ; versus PPARγ): at least 400 fold | hRXR activity [1]: did not show any
SMILES: Cc1cc(OC/C=C(/c2ccc(F)cc2)c2ccc(C#CCN3CCOCC3)cc2)ccc1OCC(=O)O [Compound 1, (E)-[4-[3-(4-Fluorophenyl)-3-[4-[3-(morpholin-4-yl)propynyl]phenyl]allyloxy]-2-methyl-phenoxy]acetic acid]
